Values joined by “and” are separate entries in the source; they are usually repeats but may differ in a detail not shown here. Identical values can stand only once.
How the values were obtained:
[1] = target: T1, human adrenergic receptor α1A (Homo sapiens, UniProt P35348); assay: Intrinsic activity, aequorin luminescence functional assay at α1A-AR; format: cell-based; settings: for α1A-AR Profile: agonist/antagonist profile; for IC50: cells expressing aequorin and human α1A, against phenylephrine, means of three independent experiments in duplicates; for Selectivity Ratio α1B/α1A: selectivity for α1A-AR (IC50(α1B-AR)/IC50(α1A-AR))
T1 sequence (P35348 1-466): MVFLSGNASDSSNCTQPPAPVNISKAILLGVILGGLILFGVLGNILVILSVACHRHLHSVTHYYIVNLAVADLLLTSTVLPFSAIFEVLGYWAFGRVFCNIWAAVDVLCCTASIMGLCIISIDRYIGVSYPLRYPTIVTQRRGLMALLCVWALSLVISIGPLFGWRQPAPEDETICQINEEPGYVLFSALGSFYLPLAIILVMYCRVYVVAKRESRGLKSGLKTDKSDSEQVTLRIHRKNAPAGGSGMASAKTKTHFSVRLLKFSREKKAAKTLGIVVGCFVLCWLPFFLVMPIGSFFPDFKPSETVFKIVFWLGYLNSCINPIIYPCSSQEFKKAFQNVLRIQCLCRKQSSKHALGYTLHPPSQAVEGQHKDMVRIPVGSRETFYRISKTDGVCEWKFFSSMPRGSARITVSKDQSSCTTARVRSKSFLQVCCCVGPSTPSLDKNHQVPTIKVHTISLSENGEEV
Protocol: (§1) The subtype selectivity for α1A and α1B was calculated as IC50(α1B-AR)/IC50(α1A-AR) and IC50(α1A-AR)/IC50(α1B-AR) ratio, respectively.
(§2) Intrinsic activity at the α1-AR subtypes studies were performed using the cells expressing mitochondrially-targeted aequorin and one of the human adrenergic receptor α1A or α1B (PerkinElmer, Boston, MA, USA), according to the manufacturer’s instructions. For measurement, frozen cells were thawed and re-suspended in 10 mL of assay buffer containing 5 μM “Coelenterazine h”. This cell suspension was put in a 10 mL Falcon tube, fixed onto a rotating heel, and incubated overnight at rt in the dark (8 rpm; 45° angle). Cells were diluted with Assay Buffer to 5000 cells/20 μL. […] The light emitted was recorded for 20 s. Cells with antagonists were incubated for 15 min at room temperature. […] Luminescence was measured using the multidetection microplate reader (POLARstar Omega, BMG LABTECH, Ortenberg, Germany).
(§3) All statistics were performed using GraphPad Prism, Version 6.0 (GraphPad Software, San Diego, CA, USA). In the radioligand binding study, data were analyzed by a one-site curve-fitting equation, and inhibition constants (Ki) values were calculated via the Cheng-Prusoff equation [63]. In functional studies, data were analyzed using a sigmoidal dose-response (variable slope) equation. Arterial blood pressure data were analyzed using a two-way ANOVA with Sidak’s post-hoc test for multiple comparisons. A p < 0.05 was considered statistically significant.

[2] = test system: arterial blood pressure of normotensive Wistar rats; assay: Influence on blood pressure in normotensive anesthetized rats after i.v. administration; format: in vivo, rat; settings: for Diastolic blood pressure / Systolic blood pressure: mean, n = 6
Protocol: In the next step, the hypotensive activity of novel compounds 1–3, 5–9, and 11–14 was determined after i.v. administration to normotensive anesthetized rats. All results are shown in Supplementary Table S1.
The normotensive rats were anesthetized with thiopental (75 mg/kg) by intraperitoneal injection (i.p.). The left carotid artery was cannulated with a polyethylene tub filled with heparin in saline to facilitate pressure measurements using a PowerLab Apparatus (ADInstruments, Sydney, Australia). Blood pressure was measured immediately before administration of the tested compounds or vehicle—time 0 min (initial blood pressure) and 60 min thereafter. Initial blood pressure before administration of the tested chemicals in all experimental groups was similar. The tested compounds were dissolved in a specific vehicle: ethyl alcohol 5% − kolliphor 5% − water 90%. All tested chemicals were administrated intravenously (i.v.) at a constant volume of 1 mL/kg after 20 min of stabilization period. The compounds were tested at a starting dose of 2 mg/kg. If the hypotensive activity was found, the dose was reduced by half. The dosing was continued until the hypotensive effects disappeared. Urapidil was used as a reference compound.
as §3

[3] = target: α1-adrenoceptors (α1-ARs), rat cerebral cortex; assay: Radioligand binding assay with [3H]-prazosin, affinity for α1-ARs; settings: three independent experiments in duplicates, read-out: α1-adrenoceptor affinity Ki
Protocol: In the first step, all synthesized compounds (1–15) were tested in vitro for their affinity for α1-ARs on rat cerebral cortex by the radioligand binding assay using [^3H]-prazosin as a specific radioligand.
The affinity for α1-ARs was determined by radioligand binding assay on rat cerebral cortex using [3H]-prazosin as a specific radioligand. The brains were homogenized in 20 volumes of an ice-cold 50 mM Tris-HCl buffer (pH 7.6) and were centrifuged (MPW Med. Instruments, Warsaw, Poland) at 20,000× g for 20 min (0–4 °C). The cell pellet was resuspended in the Tris-HCl buffer and centrifuged again. Radioligand-binding assay was performed in plates (MultiScreen/Millipore, Burlington, MA, USA). The final incubation mixture (final volume 300 μL) consisted of 240 μL of the membrane suspension, 30 μL of [3H]-Prazosin (0.2 nM) solution, and 30 μL of the buffer containing seven to eight concentrations (10^−11 to 10^−4 M) of the tested compounds. For measuring the unspecific binding, phentolamine, 10 μM (in the case of [3H]-Prazosin) was applied. The incubation was terminated by rapid filtration over glass fiber filters (Whatman GF/C, Sigma-Aldrich) using a vacuum manifold (Millipore). The filters were then washed twice with the assay buffer and placed in scintillation vials with a liquid-scintillation cocktail. Radioactivity was measured in a WALLAC 1409 DSA liquid-scintillation counter (BioSurplus, San Diego, CA, USA).
as §3

[4] = target: T2, human adrenergic receptor α1B (Homo sapiens, UniProt P35368); assay: Intrinsic activity, aequorin luminescence functional assay at α1B-AR; format: cell-based; settings: for α1B-AR Profile: agonist/antagonist profile; for IC50: cells expressing aequorin and human α1B, against phenylephrine, means of three independent experiments in duplicates; for Selectivity Ratio α1A/α1B: selectivity for α1B-AR (IC50(α1A-AR)/IC50(α1B-AR))
T2 sequence (P35368 1-520): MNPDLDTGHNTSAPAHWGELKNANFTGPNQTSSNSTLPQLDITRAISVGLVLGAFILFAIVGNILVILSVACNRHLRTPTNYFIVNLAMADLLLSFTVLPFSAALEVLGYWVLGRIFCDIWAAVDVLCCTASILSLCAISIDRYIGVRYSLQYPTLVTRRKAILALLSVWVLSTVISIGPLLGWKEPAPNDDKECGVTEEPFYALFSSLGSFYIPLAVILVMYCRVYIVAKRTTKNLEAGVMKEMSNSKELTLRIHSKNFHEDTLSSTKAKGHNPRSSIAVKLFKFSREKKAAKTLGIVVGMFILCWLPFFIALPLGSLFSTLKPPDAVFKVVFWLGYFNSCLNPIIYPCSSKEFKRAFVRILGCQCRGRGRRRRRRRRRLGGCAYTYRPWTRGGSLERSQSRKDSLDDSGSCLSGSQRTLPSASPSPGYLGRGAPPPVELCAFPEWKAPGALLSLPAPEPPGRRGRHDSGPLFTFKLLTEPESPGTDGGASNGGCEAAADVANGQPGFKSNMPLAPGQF
Protocol: as §1, §2, §3

[5] = 2.0 mg/kg i.v., 0 min (initial, before administration)
[6] = i.v., normotensive anesthetized rats
[7] = 0.0625 mg/kg i.v., 0 min (initial, before administration)

| Compound | α1A-AR Profile [1] | IC50 [1] | Selectivity Ratio α1B/α1A [1] | Diastolic blood pressure [2, 5] | Systolic blood pressure [2, 5] | Diastolic blood pressure ([2]; 2.0 mg/kg i.v., 5 min) | Systolic blood pressure ([2]; 2.0 mg/kg i.v., 5 min) | Diastolic blood pressure ([2]; 2.0 mg/kg i.v., 10 min) | Systolic blood pressure ([2]; 2.0 mg/kg i.v., 10 min) | Diastolic blood pressure ([2]; 2.0 mg/kg i.v., 20 min) | Systolic blood pressure ([2]; 2.0 mg/kg i.v., 20 min) | Diastolic blood pressure ([2]; 2.0 mg/kg i.v., 30 min) | Systolic blood pressure ([2]; 2.0 mg/kg i.v., 30 min) | Diastolic blood pressure ([2]; 2.0 mg/kg i.v., 40 min) | Systolic blood pressure ([2]; 2.0 mg/kg i.v., 40 min) | Ki [3] [nM] | α1B-AR Profile [4] | IC50 [4] | Selectivity Ratio α1A/α1B [4] | melting point [°C] | further results |
| --- | --- | --- | --- | --- | --- | --- | --- | --- | --- | --- | --- | --- | --- | --- | --- | --- | --- | --- | --- | --- | --- |
| COc1ccccc1N1CCN(CCCN2C(=O)N(Cc3ccc(Cl)cc3Cl)C(=O)C2(C)C)CC1.Cl [Compound 1, 3-(2,4-dichlorobenzyl)-1-(3-(4-(2-methoxyphenyl)piperazin-1-yl)propyl)-5,5-dimethylimidazolidine-2,4-dione hydrochloride] | Antagonist | < 100 nM and 90.6 nM | 0.12 | 101.0 | 133.3 | 88.3 | 120.3 | 82.3 | 113.0 | 82.2 | 112.2 | 81.3 | 114.2 | 80.8 | 114.7 | 31 | Antagonist | < 100 nM and < 11 nM and 10.7 nM | 8.46 | 201 to 203 | Diastolic blood pressure ([2]; 2.0 mg/kg i.v., 50 min): 81.7; Systolic blood pressure ([2]; 2.0 mg/kg i.v., 50 min): 116.0; Diastolic blood pressure ([2]; 2.0 mg/kg i.v., 60 min): 83.3; Systolic blood pressure ([2]; 2.0 mg/kg i.v., 60 min): 117.5; effect on systolic and diastolic blood pressure (in words) [2, 6]: statistically significant reduction |
| Cc1ccc(N2CCN(CC(O)CN3C(=O)N(Cc4ccc(Cl)cc4Cl)C(=O)C3(C)C)CC2)cc1C.Cl (stereo not drawn) [Compound 12, 3-(2,4-dichlorobenzyl)-1-(3-(4-(3,4-dimethylphenyl)piperazin-1-yl)-2-hydroxypropyl)-5,5-dimethylimidazolidine-2,4-dione hydrochloride] | Antagonist | 3140 nM | 0.12 | 104.2 | 139.0 | 98.2 | 134.7 | 99.5 | 134.5 | 97.8 | 132.0 | 96.7 | 131.0 | 97.0 | 129.0 | 270 | Antagonist | 377 nM | 8.31 | 217 to 219 | Diastolic blood pressure ([2]; 2.0 mg/kg i.v., 50 min): 96.8; Systolic blood pressure ([2]; 2.0 mg/kg i.v., 50 min): 130.0; Diastolic blood pressure ([2]; 2.0 mg/kg i.v., 60 min): 97.3 |
| COc1ccccc1N1CCN(CCCCCCN2C(=O)N(Cc3ccc(Cl)cc3Cl)C(=O)C2(C)C)CC1.Cl [Compound 5, 3-(2,4-dichlorobenzyl)-1-(6-(4-(2-methoxyphenyl)piperazin-1-yl)hexyl)-5,5-dimethylimidazolidine-2,4-dione hydrochloride] | Antagonist | < 100 nM and 0.02 nM | 0.10 |  |  |  |  |  |  |  |  |  |  |  |  | 12.7 | Antagonist | < 100 nM and < 11 nM and 0.002 nM | 10.00 | 205 to 207 | Diastolic blood pressure [2, 7]: 92.0; Systolic blood pressure [2, 7]: 128.8; Diastolic blood pressure ([2]; 0.0625 mg/kg i.v., 5 min): 87.7; Systolic blood pressure ([2]; 0.0625 mg/kg i.v., 5 min): 121.0; Diastolic blood pressure ([2]; 0.0625 mg/kg i.v., 10 min): 84.2; Systolic blood pressure ([2]; 0.0625 mg/kg i.v., 10 min): 116.8; Diastolic blood pressure ([2]; 0.0625 mg/kg i.v., 20 min): 81.7; Systolic blood pressure ([2]; 0.0625 mg/kg i.v., 20 min): 114.2; Diastolic blood pressure ([2]; 0.0625 mg/kg i.v., 30 min): 82.7; Systolic blood pressure ([2]; 0.0625 mg/kg i.v., 30 min): 113.3; Diastolic blood pressure ([2]; 0.0625 mg/kg i.v., 40 min): 81.7; Systolic blood pressure ([2]; 0.0625 mg/kg i.v., 40 min): 114.7; Diastolic blood pressure ([2]; 0.0625 mg/kg i.v., 50 min): 81.8; Systolic blood pressure ([2]; 0.0625 mg/kg i.v., 50 min): 116.8; Diastolic blood pressure ([2]; 0.0625 mg/kg i.v., 60 min): 83.3; Systolic blood pressure ([2]; 0.0625 mg/kg i.v., 60 min): 116.3; hypotensive dose lower than that of urapidil ([2]; 0.0625 vs. 1.0 mg/kg): 16 fold; effect on systolic and diastolic blood pressure (in words) [2, 6]: statistically significant reduction; lowest hypotensive (effective) dose [2, 6]: 0.0625 mg/kg |
